Experimental data from patent US5189169A (priority 1991, dated 1993).
Values joined by “and” are separate entries in the source; they are usually repeats but may differ in a detail not shown here. Identical values can stand only once.

Assays:
[1] = test system: three broadleaf weeds: wild mustard, redroot pigweed and curly dock; experiment: Post-emergence herbicidal activity, broadleaf weeds (Table III); type: in vivo, Brassica kaber, Amaranthus retroflexus, Rumex crispus; conditions: 2.24 kg/ha, 2-3 weeks after treatment
Procedure: (§1) The herbicidal effect was observed by comparing the extent of weed control in test flats treated with the compounds against that occurring in similar non-treated control flats. All were applied at 3.57 lb/A (4 kg/ha) to pre-emergence and post-emergence screening flats. An 80 gal/A (748.3 1/ha) spray volume was utilized. Post-emergence flats were seeded 12 days prior to treatment. Pre-emergence flats were seeded one day prior to treatment. Overhead watering of pre-emergence flats and soil surface watering of post-emergence flats, so as to avoid wetting the foliage, were carried out for the duration of the test.
(§2) Weed seeds were planted in a flat at a seed depth of 0.5 inch (1.3 cm). Soil for flats was prepared using loam soil fortified with 17-17-17 fertilizer (N-P2 O5 -K2 O on a weight basis) and Captan 80W fungicide. The test weeds were as follows:
(§3) The spray solutions were prepared by dissolving 240 mg of test compound in 20 ml of acetone containing 1% polyoxyethylene sorbitan monolaurate emulsifier, then adding 20 ml of water to the resulting solution. The spray solutions were applied using a linear spray table. Pre-emergence flats are raised to the level of the post-emergence foliage canopy by setting the flats on a wooden block.
(§4) The degree of weed control was visually assessed and recorded as percentage control compared to the growth of the same species in an untreated check flat of the same age. The rating scale ranges from 0 to 100%, where 0 equals no effect with plant growth equal to the untreated control, and 100 equals complete kill.
(§5) Compounds 68 to 145 in Table I were tested generally similarly to Compounds No. 1 to 67 with the following differences: The rate of application was 2 lb/acre (2.24 kg/ha), no 6-day evaluations were made, and the weeds were:
Three broadleaf weeds: wild mustard, redroot pigweed (Amaranthus retroflexus) and curly dock (Rumex crispus).
(§6) Ratings were taken 2-3 weeks after treatment.

[2] = test system: four grassy weeds: wild oat, watergrass, green foxtail and crabgrass; experiment: Post-emergence herbicidal activity, grassy weeds (Table III); type: in vivo; conditions: 2.24 kg/ha, 2-3 weeks after treatment
Procedure: as §1, §2, §3, §4, §5
Four grassy weeds: wild oat, watergrass, green foxtail and crabgrass (Digitaria sanguinalis);
as §6

[3] = test system: three broadleaf weeds (morning glory, mustard, velvetleaf); parameters: species or system Ipomoea purpurea, Brassica kaber, Abutilon theophrasti; conditions: in vivo
yellow nutsedge [4] = test system: yellow nutsedge; parameters: species or system Cyperus esculentus; conditions: in vivo
[5] = test system: three broadleaf weeds (morning glory, mustard, velvetleaf); parameters: species or system Ipomoea purpurea, Brassica kaber, Abutilon theophrasti; conditions: in vivo; remark: listed apart in the source
yellow nutsedge [6] = test system: yellow nutsedge; parameters: species or system Cyperus esculentus; conditions: in vivo; remark: listed apart in the source
[7] = test system: three grassy weeds (wild oat, watergrass, foxtail); parameters: species or system Avena fatua, Echinochloa crusgalli, Setaria viridis; conditions: in vivo

| SMILES | % Control, Post-Emergence, BL Avg. [1] [%] | % Control, Post-Emergence, GR Avg. [2] [%] | % Control, Pre-emergence, BL avg. [3] [%] | % Control, Post-emergence, NS (yellow nutsedge [4]) | % Control, Post-emergence, BL avg. [5] | % Control, Pre-emergence, NS (yellow nutsedge [6]) [%] | % Control, Pre-emergence, GR avg. [7] [%] |
| --- | --- | --- | --- | --- | --- | --- | --- |
| CCCN(CCC)P(=O)(SC(C)CC)N(C)c1ccccc1 (stereo not shown) [Compound 122] | 79 | 56 | – | – | – | – | – |
| CCCCN(CC)P(=O)(SC(C)c1ccccc1)N(CC)CC (stereo not shown) [Compound 143] | 69 | 52 | – | – | – | – | – |
| CCCCN(CC)P(=O)(SC1CCCCC1)N(CCC)CCC (stereo not shown) [Compound 137] | 88 | 53 | – | – | – | – | – |
| CCCSP(=O)(N(CC)CC)N1CCCCCC1 (stereo not shown) [Compound 92] | 86 | 62 | – | – | – | – | – |
| CCCCSP(=O)(N(C)C)N(CCCC)CCCC (stereo not shown) [Compound 110] | 98 | 93 | – | – | – | – | – |
| CCCCN(CC)P(=O)(SC(C)C)N(CC)CC (stereo not shown) [Compound 140] | 66 | 68 | – | – | – | – | – |
| CCCCCCSP(=O)(N(CCCC)CCCC)N(CCCC)CCCC [Compound 134] | 90 | 56 | – | – | – | – | – |
| CCN(CC)P(=O)(SC(C)C)N(CC)CC [Compound 103] | 73 | 67 | – | – | – | – | – |
| CCCN(CCC)P(=O)(SC(C)C)N(C)c1ccccc1 (stereo not shown) [Compound 120] | 71 | 50 | – | – | – | – | – |
| CCCSP(=O)(N(CCC)CCC)N(C)c1ccccc1C(C)C (stereo not shown) [Compound 56] | – | – | 6 | 0% | 85% and 90% | 0 | 31 |
| CCN(CC)P(=O)(SC(C)C)N1CCCCCC1 (stereo not shown) [Compound 101] | 100 | 69 | – | – | – | – | – |
| CCCCSP(=O)(N(CC)CC)N1CCCCCC1 (stereo not shown) [Compound 93] | 99 | 73 | – | – | – | – | – |
| CCCCN(CCCC)P(=O)(SC(C)(C)C)N(C)C (stereo not shown) [Compound 106] | 91 | 65 | – | – | – | – | – |
| CCCSP(=O)(N(CC)CC)N(CC)CC [Compound 68] | 87 | 40 | – | – | – | – | – |
| CCCCN(CCC(C)C)P(=O)(SCCC)N(CCCC)CCC(C)C [Compound 52] | – | – | 0 | 0% | 90% and 86% | 0 | 0 |
| CCCCSP(=O)(N(CCC)CCC)N1CCCCC1 (stereo not shown) [Compound 74] | 100 | 47 | – | – | – | – | – |
| CCCCN(CC)P(=O)(SCCC)N(CC)CC (stereo not shown) [Compound 139] | 70 | 65 | – | – | – | – | – |
| CCCSP(=O)(N(CCC)CCC)N(C)c1ccc(F)cc1F (stereo not shown) [Compound 19] | – | – | 0 | 0% | – | – | 0 |
| C=CCSP(=O)(N(C)C)N(CCCC)CCCC (stereo not shown) [Compound 112] | 87 | 56 | – | – | – | – | – |
| CCCCN(c1ccc(F)cc1)P(=O)(SCCC)N(CCC)CCC (stereo not shown) [Compound 55] | – | – | 3 | 0% | 90% and 86% | 5 | 13 |
| CCCCCN(CCCCC)P(=O)(SCCC)N(C)c1ccc(Cl)cc1 (stereo not shown) [Compound 17] | – | – | 33 | 10% and 0% | 50% and 43% | 0 | 57 |
| CCCSP(=O)(N(CCC)CCC)N(C)c1ccc(F)c(F)c1F (stereo not shown) [Compound 47] | – | – | 0 | 0% | 100% and 98% | 0 | 0 |

| SMILES | % Control, Post-Emergence, BL Avg. [1] [%] | % Control, Post-Emergence, GR Avg. [2] [%] | % Control, Pre-emergence, BL avg. [3] [%] | % Control, Post-emergence, NS (yellow nutsedge [4]) | % Control, Post-emergence, BL avg. [5] | % Control, Pre-emergence, NS (yellow nutsedge [6]) [%] | % Control, Pre-emergence, GR avg. [7] [%] |
| --- | --- | --- | --- | --- | --- | --- | --- |
| CCCCSP(=O)(N(CC)CC)N(CC)CCCC (stereo not shown) [Compound 141] | 86 | 65 | – | – | – | – | – |
| CCCCN(CCCC)P(=O)(SCCC)N(C)c1ccc(Cl)c(Cl)c1 (stereo not shown) [Compound 21] | – | – | 0 | 0% | 20% and 40% | 0 | 0 |
| CCCSP(=O)(N(CCC)CCC)N(C)c1cc(F)ccc1C (stereo not shown) [Compound 67] | – | – | 16 | 0% | 95% and 100% | 0 | 0 |
| CCCSP(=O)(N(CCC)CCC)N(C)c1ccc(OC)cc1C (stereo not shown) [Compound 65] | – | – | 0 | 0% | 70% and 76% | 0 | 0 |
| CCN(CC)P(=O)(SCc1ccccc1)N(CC)CC [Compound 94] | 70 | 30 | – | – | – | – | – |
| CCCSP(=O)(N(CCC)CCC)N(C)c1ccc(F)cc1C (stereo not shown) [Compound 64] | – | – | 0 | 0% and 5% | 85% and 93% | 0 | 3 |
| CCCCN(CCCC)P(=O)(SCC)N(C)C (stereo not shown) [Compound 107] | 98 | 64 | – | – | – | – | – |
| CCCCN(CCCC)P(=O)(SC1CCCCC1)N(CCCC)CCCC [Compound 136] | 90 | 50 | – | – | – | – | – |
| CCCSP(=O)(N(CCC)CCC)N(C)c1ccc(C(C)C)cc1 (stereo not shown) [Compound 58] | – | – | 0 | 0% | 70% and 61% | 0 | 0 |
| CCCN(CCC)P(=O)(Sc1ccccc1Br)N(CCC)CCC [Compound 8] | – | – | 0 | 0% | 50% and 55% | 0 | 0 |
| CCC(C)SP(=O)(N(CC)CC)N(CC)CC (stereo not shown) [Compound 104] | 87 | 77 | – | – | – | – | – |
| C=CCSP(=O)(N(CCC)CCC)N1CCCCCC1 (stereo not shown) [Compound 100] | 95 | 63 | – | – | – | – | – |
| CCCN(CCC)P(=O)(Sc1cccc(Cl)c1)N(CCC)CCC [Compound 60] | – | – | 13 | 0% | 75% and 73% | 0 | 0 |
| CCCSP(=O)(N(CCC)CCC)N(C)c1ccc(C#N)cc1 (stereo not shown) [Compound 41] | – | – | 0 | 0% | – | 0 | 0 |
| CCCSP(=O)(N(CCC)CCC)N(CC)c1ccc(F)cc1 (stereo not shown) [Compound 54] | – | – | 8 | 0% | 100% | 0 | 0 |
| CCCC(CC)SP(=O)(N(CC)CC)N(CC)CC (stereo not shown) [Compound 105] | 73 | 54.5 | – | – | – | – | – |
| CCCSP(=O)(N(CCC)CCC)N1CCCCC1 (stereo not shown) [Compound 73] | 87 | 55 | – | – | – | – | – |
| CCCCSP(=O)(N(CCC)CCC)N(C)c1ccccc1 (stereo not shown) [Compound 121] | 72 | 59 | – | – | – | – | – |
| CCCCN(CCCC)P(=O)(SCc1ccccc1)N(C)C (stereo not shown) [Compound 113] | 83 | 48 | – | – | – | – | – |
| CCCN(CCC)P(=O)(SCC)N1CCCCC1 (stereo not shown) [Compound 72] | 86 | 50 | – | – | – | – | – |
| CCCN(CCC)P(=O)(SCC)N(CC)CC (stereo not shown) [Compound 144] | 78 | 59 | – | – | – | – | – |
| CCCCN(CC)P(=O)(SCC)N(CC)CC (stereo not shown) [Compound 138] | 69 | 63 | – | – | – | – | – |
